Measurements as given in ChEMBL document CHEMBL3991601, “The target landscape of clinical kinase drugs” (Science, 2017).
Calls of active or inactive are those of the source. Rule as the data show it, for most assays here: actives have a measured Kd and inactives only a lower limit.

What was measured:
[1] = biological target: Cyclin-dependent kinase 12 (Homo sapiens, UniProt Q9NYV4)
[2] = biological target: ATP-dependent RNA helicase DDX3X (Homo sapiens, UniProt O00571)
[3] = biological target: T1, Phenylalanine--tRNA ligase beta subunit (Homo sapiens, UniProt Q9NSD9)
T1 sequence (Q9NSD9 whole entry): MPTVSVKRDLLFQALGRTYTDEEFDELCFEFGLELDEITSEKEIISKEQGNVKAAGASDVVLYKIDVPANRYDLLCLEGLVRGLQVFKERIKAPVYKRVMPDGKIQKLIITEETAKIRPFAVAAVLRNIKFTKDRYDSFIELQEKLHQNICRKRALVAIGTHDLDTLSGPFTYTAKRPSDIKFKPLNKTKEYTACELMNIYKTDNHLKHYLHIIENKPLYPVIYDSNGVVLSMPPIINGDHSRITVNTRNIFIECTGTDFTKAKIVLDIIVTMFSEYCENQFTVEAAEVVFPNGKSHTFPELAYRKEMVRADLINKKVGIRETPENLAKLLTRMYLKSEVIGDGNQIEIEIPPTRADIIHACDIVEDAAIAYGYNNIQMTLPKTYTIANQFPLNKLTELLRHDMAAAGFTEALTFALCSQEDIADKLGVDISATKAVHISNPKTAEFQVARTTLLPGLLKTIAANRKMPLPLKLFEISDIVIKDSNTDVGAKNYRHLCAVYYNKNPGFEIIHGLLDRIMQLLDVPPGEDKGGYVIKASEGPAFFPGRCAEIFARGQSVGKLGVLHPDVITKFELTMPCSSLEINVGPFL

[4] = biological target: T2, Serine/threonine-protein kinase Nek2 (Homo sapiens, UniProt P51955)
T2 sequence (P51955 whole entry): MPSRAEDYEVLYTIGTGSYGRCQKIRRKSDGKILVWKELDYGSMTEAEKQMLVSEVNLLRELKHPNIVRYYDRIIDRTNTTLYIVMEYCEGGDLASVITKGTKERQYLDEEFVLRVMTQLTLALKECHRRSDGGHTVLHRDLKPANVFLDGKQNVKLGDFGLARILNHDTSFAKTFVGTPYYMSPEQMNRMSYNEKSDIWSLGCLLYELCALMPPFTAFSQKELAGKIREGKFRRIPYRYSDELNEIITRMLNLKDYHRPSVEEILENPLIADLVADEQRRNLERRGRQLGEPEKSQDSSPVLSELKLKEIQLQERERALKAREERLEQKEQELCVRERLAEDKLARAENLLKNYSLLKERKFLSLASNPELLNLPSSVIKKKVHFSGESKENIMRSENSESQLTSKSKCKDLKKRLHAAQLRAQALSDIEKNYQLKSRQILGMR

[5] = biological target: Platelet-derived growth factor receptor beta (Homo sapiens, UniProt P09619)
[6] = biological target: Ribosomal protein S6 kinase alpha-1 (Homo sapiens, UniProt Q15418)
[7] = biological target: AP2-associated protein kinase 1 (Homo sapiens, UniProt Q2M2I8)
Aurora kinase A = biological target: T3, Aurora kinase A (Homo sapiens, UniProt O14965)
T3 sequence (O14965 whole entry): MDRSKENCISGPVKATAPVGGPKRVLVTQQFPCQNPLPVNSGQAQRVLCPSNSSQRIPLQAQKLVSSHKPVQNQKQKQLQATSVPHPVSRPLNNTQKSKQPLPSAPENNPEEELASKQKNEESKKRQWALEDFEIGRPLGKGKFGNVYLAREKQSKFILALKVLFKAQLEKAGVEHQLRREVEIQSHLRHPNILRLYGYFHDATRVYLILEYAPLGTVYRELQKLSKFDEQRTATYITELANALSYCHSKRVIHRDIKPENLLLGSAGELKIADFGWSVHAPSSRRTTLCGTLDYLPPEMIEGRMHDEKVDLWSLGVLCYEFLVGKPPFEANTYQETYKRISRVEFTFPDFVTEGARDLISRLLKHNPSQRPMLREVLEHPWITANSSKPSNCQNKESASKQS
Also: in the data inactive means no Kd found up to 30 µM.

Ribosomal protein S6 kinase alpha-1, sequence (Q15418 whole entry): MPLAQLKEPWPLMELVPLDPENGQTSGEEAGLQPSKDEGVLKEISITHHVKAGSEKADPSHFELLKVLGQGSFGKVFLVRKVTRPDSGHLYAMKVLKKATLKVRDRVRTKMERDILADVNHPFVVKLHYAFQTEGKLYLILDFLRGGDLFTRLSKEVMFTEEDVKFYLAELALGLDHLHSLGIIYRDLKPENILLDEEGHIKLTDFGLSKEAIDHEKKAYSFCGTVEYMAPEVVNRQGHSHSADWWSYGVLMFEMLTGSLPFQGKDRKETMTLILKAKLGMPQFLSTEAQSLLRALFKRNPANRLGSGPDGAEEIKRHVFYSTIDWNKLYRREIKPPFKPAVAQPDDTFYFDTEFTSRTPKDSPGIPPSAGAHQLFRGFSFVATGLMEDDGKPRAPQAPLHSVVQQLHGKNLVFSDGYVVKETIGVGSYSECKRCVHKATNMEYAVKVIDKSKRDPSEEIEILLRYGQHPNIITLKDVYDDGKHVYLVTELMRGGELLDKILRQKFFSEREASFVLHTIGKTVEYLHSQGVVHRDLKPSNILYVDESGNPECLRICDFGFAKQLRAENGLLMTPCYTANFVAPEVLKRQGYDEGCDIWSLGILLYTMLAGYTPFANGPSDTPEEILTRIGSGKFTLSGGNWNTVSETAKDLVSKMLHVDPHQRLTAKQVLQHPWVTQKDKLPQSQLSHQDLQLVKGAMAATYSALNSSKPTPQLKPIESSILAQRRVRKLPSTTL
ATP-dependent RNA helicase DDX3X, sequence (O00571 whole entry): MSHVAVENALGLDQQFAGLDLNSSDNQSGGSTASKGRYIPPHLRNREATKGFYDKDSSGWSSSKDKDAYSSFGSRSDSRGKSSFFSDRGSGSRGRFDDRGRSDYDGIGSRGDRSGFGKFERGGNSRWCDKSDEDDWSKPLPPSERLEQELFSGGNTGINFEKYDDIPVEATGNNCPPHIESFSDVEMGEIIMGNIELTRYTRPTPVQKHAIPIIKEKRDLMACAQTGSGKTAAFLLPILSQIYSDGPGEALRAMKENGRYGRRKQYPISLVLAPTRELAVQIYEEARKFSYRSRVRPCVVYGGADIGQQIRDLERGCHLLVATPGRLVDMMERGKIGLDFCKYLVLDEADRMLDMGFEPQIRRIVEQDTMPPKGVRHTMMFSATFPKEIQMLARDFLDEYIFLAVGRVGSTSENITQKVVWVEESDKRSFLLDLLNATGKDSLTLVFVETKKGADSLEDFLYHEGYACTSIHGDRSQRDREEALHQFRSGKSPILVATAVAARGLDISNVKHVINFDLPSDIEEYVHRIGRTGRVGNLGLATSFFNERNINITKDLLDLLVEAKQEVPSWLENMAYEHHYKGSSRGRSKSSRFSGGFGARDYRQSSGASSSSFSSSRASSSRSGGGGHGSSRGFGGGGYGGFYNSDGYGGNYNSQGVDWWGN
AP2-associated protein kinase 1, sequence (Q2M2I8 whole entry): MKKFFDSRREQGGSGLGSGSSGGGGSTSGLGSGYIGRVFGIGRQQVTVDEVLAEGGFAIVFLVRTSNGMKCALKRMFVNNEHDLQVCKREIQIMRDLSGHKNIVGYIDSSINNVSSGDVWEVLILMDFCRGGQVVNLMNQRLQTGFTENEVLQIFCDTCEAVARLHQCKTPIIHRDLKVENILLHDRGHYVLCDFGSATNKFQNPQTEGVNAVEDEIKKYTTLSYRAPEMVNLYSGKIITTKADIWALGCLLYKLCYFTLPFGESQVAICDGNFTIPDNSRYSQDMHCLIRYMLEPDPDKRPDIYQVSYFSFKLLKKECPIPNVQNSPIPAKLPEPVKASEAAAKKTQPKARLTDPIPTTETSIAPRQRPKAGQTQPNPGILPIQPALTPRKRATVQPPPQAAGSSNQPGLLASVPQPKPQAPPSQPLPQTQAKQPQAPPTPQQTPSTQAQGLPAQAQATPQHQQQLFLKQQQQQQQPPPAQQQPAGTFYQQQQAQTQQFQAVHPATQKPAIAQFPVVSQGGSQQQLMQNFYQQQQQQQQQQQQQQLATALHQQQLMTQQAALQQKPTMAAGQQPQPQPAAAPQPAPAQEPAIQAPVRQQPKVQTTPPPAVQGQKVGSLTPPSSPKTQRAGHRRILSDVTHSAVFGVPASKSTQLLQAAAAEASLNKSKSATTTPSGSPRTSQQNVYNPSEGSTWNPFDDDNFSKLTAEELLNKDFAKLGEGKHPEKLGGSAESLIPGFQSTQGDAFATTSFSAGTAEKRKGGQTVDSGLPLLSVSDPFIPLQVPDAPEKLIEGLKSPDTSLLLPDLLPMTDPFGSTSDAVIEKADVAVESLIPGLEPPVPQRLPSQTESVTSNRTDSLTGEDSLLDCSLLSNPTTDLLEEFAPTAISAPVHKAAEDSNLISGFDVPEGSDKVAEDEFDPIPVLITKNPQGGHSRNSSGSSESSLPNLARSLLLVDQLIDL
Platelet-derived growth factor receptor beta, sequence (P09619 whole entry): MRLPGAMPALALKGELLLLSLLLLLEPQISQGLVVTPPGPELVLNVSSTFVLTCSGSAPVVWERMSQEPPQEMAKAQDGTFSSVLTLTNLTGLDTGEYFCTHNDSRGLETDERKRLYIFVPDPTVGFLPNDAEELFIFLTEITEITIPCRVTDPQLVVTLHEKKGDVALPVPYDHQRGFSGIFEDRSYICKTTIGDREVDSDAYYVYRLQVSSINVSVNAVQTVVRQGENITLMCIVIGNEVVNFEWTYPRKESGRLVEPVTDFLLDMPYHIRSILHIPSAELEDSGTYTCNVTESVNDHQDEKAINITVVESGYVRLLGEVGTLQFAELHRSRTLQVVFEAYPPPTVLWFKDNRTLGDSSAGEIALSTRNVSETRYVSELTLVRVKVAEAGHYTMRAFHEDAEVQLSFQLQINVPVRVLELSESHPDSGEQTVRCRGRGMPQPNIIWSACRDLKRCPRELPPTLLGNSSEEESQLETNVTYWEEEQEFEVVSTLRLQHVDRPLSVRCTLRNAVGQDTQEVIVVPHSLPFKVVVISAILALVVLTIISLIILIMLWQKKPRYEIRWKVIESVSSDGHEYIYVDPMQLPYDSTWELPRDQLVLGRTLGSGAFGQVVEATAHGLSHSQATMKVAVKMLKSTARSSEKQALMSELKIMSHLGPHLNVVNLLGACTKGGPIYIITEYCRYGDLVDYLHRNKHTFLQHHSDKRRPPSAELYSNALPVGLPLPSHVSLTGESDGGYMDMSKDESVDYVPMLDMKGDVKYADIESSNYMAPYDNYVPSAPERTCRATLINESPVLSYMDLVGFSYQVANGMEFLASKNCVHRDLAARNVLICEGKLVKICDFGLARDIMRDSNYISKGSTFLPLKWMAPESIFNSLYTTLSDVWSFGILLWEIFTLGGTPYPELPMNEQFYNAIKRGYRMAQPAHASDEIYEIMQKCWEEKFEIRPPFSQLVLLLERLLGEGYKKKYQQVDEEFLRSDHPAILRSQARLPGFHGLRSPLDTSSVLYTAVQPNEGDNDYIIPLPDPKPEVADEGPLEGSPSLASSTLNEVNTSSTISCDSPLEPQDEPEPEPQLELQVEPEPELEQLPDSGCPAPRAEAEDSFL
Cyclin-dependent kinase 12, sequence (Q9NYV4 whole entry): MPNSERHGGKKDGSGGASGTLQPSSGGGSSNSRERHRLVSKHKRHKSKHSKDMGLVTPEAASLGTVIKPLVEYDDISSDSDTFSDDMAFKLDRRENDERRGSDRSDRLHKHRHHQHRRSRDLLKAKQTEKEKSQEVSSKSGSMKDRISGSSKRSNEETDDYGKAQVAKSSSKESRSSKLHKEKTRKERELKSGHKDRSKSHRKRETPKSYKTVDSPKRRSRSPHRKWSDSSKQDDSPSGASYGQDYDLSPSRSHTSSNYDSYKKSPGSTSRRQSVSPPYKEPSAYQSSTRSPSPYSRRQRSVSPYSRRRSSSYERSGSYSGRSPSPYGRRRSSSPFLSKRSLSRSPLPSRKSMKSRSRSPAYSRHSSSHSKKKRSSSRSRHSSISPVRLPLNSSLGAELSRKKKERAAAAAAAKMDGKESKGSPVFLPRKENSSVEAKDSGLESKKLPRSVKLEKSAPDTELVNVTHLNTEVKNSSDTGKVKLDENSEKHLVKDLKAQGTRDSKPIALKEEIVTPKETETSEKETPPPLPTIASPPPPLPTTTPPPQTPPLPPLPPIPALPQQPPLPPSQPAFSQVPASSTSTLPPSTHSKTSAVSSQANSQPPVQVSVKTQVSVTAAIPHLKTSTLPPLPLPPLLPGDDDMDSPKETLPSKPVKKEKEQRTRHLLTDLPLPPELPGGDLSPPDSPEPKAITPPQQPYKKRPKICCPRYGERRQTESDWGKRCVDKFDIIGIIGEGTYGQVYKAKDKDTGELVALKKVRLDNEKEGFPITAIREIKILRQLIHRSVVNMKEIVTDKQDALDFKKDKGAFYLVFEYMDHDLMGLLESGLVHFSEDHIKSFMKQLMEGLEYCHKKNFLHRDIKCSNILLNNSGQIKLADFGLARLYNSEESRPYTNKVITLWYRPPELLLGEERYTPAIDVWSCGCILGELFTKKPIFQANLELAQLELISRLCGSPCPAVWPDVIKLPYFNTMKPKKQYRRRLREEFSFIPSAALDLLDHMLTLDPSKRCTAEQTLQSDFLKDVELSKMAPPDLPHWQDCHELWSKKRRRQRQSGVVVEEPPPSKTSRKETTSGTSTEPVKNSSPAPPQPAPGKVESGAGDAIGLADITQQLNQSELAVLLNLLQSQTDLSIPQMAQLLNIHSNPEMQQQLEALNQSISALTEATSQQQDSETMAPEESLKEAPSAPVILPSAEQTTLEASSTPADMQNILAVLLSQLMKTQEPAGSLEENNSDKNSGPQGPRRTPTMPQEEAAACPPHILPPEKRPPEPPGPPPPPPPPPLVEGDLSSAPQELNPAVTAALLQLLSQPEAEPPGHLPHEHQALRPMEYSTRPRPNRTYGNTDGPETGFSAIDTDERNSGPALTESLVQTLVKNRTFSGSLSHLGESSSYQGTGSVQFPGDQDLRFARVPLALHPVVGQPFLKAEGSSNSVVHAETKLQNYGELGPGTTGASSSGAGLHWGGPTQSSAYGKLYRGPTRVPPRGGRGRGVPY

Row | Kd [1] | Kd [2] | Kd [3] | Kd [4] | Kd [5] | Kd [6] | Kd [7] | Kd (Aurora kinase A) | SMILES
1 | > 30 µM (inactive) | > 30 µM (inactive) | > 30 µM (inactive) | > 30 µM (inactive) | > 30 µM (inactive) | > 30 µM (inactive) | > 30 µM (inactive) | > 30 µM (inactive) | Cc1cc(C(=O)NOCCO)c(Nc2ccc(I)cc2F)n(C)c1=O [AZD-8330]
2 | > 30 µM (inactive) | > 30 µM (inactive) | > 30 µM (inactive) | > 30 µM (inactive) | – | > 30 µM (inactive) | > 30 µM (inactive) | > 30 µM (inactive) | COc1cc2ncnc(Oc3cccc(NC(=O)Nc4cc(C(C)(C)C(F)(F)F)on4)c3)c2cc1OC [CEP-32496]
3 | > 30 µM (inactive) | > 30 µM (inactive) | > 30 µM (inactive) | > 30 µM (inactive) | > 30 µM (inactive) | > 30 µM (inactive) | > 30 µM (inactive) | > 30 µM (inactive) | NC1(c2ccc(-c3nc4ccn5c(=O)[nH]nc5c4cc3-c3ccccc3)cc2)CCC1 [MK-2206]
4 | > 30 µM (inactive) | > 30 µM (inactive) | > 30 µM (inactive) | > 30 µM (inactive) | 29.7 µM | 0.82 µM (active) | 3.04 µM (active) | 0.981 µM (active) | Cc1nc(Nc2n[nH]c3c2CN(C(=O)N[C@H](CN(C)C)c2ccccc2)C3(C)C)c2sccc2n1 [PF-03758309]

Second part, the compound before the results:

Row | SMILES | Kd [1] | Kd [2] | Kd [3] | Kd [4] | Kd [5] | Kd [6] | Kd [7] | Kd (Aurora kinase A)
5 | CC(=O)c1cnc2ccc(-c3cc(Cl)c(O)c(Cl)c3)nc2c1N[C@H]1CC[C@H](CN(C)C)CC1 | > 30 µM (inactive) | > 30 µM (inactive) | > 30 µM (inactive) | > 30 µM (inactive) | 0.103 µM (active) | 0.251 µM (active) | – | –
6 | C=CC(=O)N1CCC[C@H](n2c(=O)n(-c3ccc(Oc4ccccc4)cc3)c3c(N)ncnc32)C1 | > 30 µM (inactive) | > 30 µM (inactive) | > 30 µM (inactive) | > 30 µM (inactive) | > 30 µM (inactive) | > 30 µM (inactive) | > 30 µM (inactive) | > 30 µM (inactive)
7 | Nc1ncnc2c1c(-c1cccc(OCc3ccccc3)c1)cn2[C@H]1C[C@@H](CN2CCC2)C1 [AEW-541] | > 30 µM (inactive) | > 30 µM (inactive) | > 30 µM (inactive) | > 30 µM (inactive) | > 30 µM (inactive) | > 30 µM (inactive) | > 30 µM (inactive) | > 30 µM (inactive)
8 | COCC(=O)NC/C=C/c1ccc2ncnc(Nc3ccc(Oc4ccc(C)nc4)c(C)c3)c2c1 [CP-724714] | > 30 µM (inactive) | > 30 µM (inactive) | > 30 µM (inactive) | > 30 µM (inactive) | > 30 µM (inactive) | > 30 µM (inactive) | > 30 µM (inactive) | > 30 µM (inactive)
9 | Cn1cc(C2=C(c3cn(C4CCN(Cc5ccccn5)CC4)c4ccccc34)C(=O)NC2=O)c2ccccc21 [ENZASTAURIN] | > 30 µM (inactive) | > 30 µM (inactive) | > 30 µM (inactive) | – | – | – | – | –
10 | Cc1nc2cc(-n3ncc(C(=O)c4cc5ccccc5[nH]4)c3N)ccc2[nH]1 [FGFR INHIBITOR DEBIO 1347] | > 30 µM (inactive) | > 30 µM (inactive) | > 30 µM (inactive) | > 30 µM (inactive) | > 30 µM (inactive) | > 30 µM (inactive) | > 30 µM (inactive) | > 30 µM (inactive)
11 | COc1ccc(S(=O)(=O)N(C(C)=O)c2ccccc2/C=C/c2cc[n+]([O-])cc2)cc1 [HMN-214] | > 30 µM (inactive) | > 30 µM (inactive) | > 30 µM (inactive) | > 30 µM (inactive) | > 30 µM (inactive) | > 30 µM (inactive) | > 30 µM (inactive) | > 30 µM (inactive)
12 | COc1ncc(-c2ccc3nccc(-c4ccnnc4)c3c2)cc1NS(=O)(=O)c1ccc(F)cc1F [OMIPALISIB] | > 30 µM (inactive) | > 30 µM (inactive) | > 30 µM (inactive) | > 30 µM (inactive) | > 30 µM (inactive) | > 30 µM (inactive) | > 30 µM (inactive) | > 30 µM (inactive)
13 | O=C(NOCCO)c1cc(CN2OCCCC2=O)c(F)c(F)c1Nc1ccc(I)cc1F [RO-4987655] | > 30 µM (inactive) | > 30 µM (inactive) | > 30 µM (inactive) | – | – | – | – | –
